Earlier results on one substance are cited in patent EP0349956A1, “Azacyclic compounds and their preparation und use” (NOVO NORDISK A/S, priority 1988, dated 1990).

Read-outs that look alike come from different tables or passages of the source.

The target in the data set is muscarinic receptor in the CNS.

With ³H-Oxotremorine-M, the Kd runs as follows: (first of three different sites labelled by ³H-Oxo (high affinity)) 1.8 nM; (second of three different sites labelled by ³H-Oxo (medium affinity)) 20 nM; (third of three different sites labelled by ³H-Oxo (not determined under the present conditions), read-out: affinity) 3000 nM.
